In a melting point compilation (Tetko et al.):

Row | SMILES | melting point [°C]
1 | CC(C)CCCCCOC(=O)c1ccccc1C(=O)OCCCCCC(C)C | -4
2 | CCCCCCCCN(CCCCCCCC)CCCCCCCC | 34
3 | Clc1cc2c(cc1Cl)Oc1ccccc1O2 | 163
4 | CCOC(=O)CNc1nc(Cl)nc(NC(C)C)n1 | 110
5 | COC(=O)c1ccc(N=C=S)cc1 | 48
6 | N#Cc1ccnc(N)c1 | 150
7 | Cc1ccc(-c2cc(-c3ccccn3)nc(-c3ccccn3)c2)cc1 | 169
8 | OCc1snnc1-c1ccccc1 | 116 to 118
9 | CC(=O)Oc1cc(C(C)C)c(OCCN(C)C)cc1C | 144
10 | COC(=O)C1CC(=O)c2ccccc21 (stereo not drawn) | 45
11 | Nc1c(Br)cc(Br)cc1C(O)c1ccccc1 (stereo not drawn) | 152
12 | CC12C=C(C(=O)Oc3ccccc3)C(CC1)C2(C)C (stereo not drawn) | 64
13 | CSCC[C@@H](NC(=O)OC(C)(C)C)C(=O)O | 47 to 50
14 | Cc1ccc2cc3c(cc2n1)CCC(C)N3C(=O)c1ccccc1 (stereo not drawn) | 155
15 | c1ccc2nncnc2c1 | 75.8
16 | O=C(COc1ncn(-c2ccc(Cl)cc2)n1)NNC(=S)NCc1ccccc1 | 133 to 135
17 | COc1ccc(C(N)=O)cc1OC | 164
18 | OCCN1CCN(c2ncc(C(F)(F)F)cc2Cl)CC1 | 62 to 66
19 | CCc1ccc(C(c2ccc(CC)cc2)C(Cl)Cl)cc1 | 56
20 | CC(C)Nc1nc(Cl)nc(NC2CC2)n1 | 167
21 | Cc1cc(C)c2c(=O)n(C)c(S)nc2n1 | 234 to 236
22 | FC(F)(F)c1nn2c(=S)nc(-c3ccccc3)nc2s1 | 222
23 | O=C(O)Cc1cccnc1 | 144
24 | CCOC(=O)Cn1c(Br)nc(Cl)c1Cl | 42 to 45
25 | C[Si](C)(C)C1=CC2(CCCCC2)CC1=O | 56

Row | SMILES | melting point [°C]
26 | O=C(O)c1coc2c1C(=O)CCC2 | 140 to 143
27 | COC(=O)c1cncc(C)c1 | 44
28 | FC(F)(F)c1nn(CN2CCN(Cn3nc(C(F)(F)F)n(N=Cc4ccc5c(c4)OCO5)c3=S)CC2)c(=S)n1N=Cc1ccc2c(c1)OCO2 | 156
29 | CCO[Si](c1ccccc1)(c1ccccc1)c1ccccc1 | 65
30 | O=C(NCC1CCCCN1)c1cc(OCC(F)(F)F)ccc1OCC(F)(F)F (stereo not drawn) | 146
31 | O=C1C=CC(=O)c2ccccc21 | 128
32 | CC(O)C(O)(c1ccccc1)c1ccccc1 (stereo not drawn) | 92
33 | O=C(OCc1ccccc1)C(=O)OCc1ccccc1 | 80 to 82
34 | O=C(O)C=CC(=O)Nc1cccc2ccccc12 | 150 to 153
35 | CCC1=CN(S(=O)(=O)c2ccc(C)cc2)C[C@@H]1CCc1cccc(C(=O)OC)c1 | 67.5
36 | Cc1ccccc1N1CSc2nnc(-c3ccccc3)n2C1 | 199
37 | O=c1[nH]cc(C(F)(F)F)c(=O)[nH]1 | 316
38 | CCCC(C)CC(C)O (stereo not drawn) | -102
39 | C[C@H](CCC(=O)O)[C@H]1CC[C@H]2[C@@H]3CC[C@H]4CC(=O)CC[C@]4(C)[C@H]3CC[C@]12C | 189
40 | Clc1ncnc2sc3c(c12)CCCCC3 | 64 to 65
41 | O=C1OC(c2ccccc2)(c2ccccc2)c2ccccc21 | 120
42 | O=C(O)c1cccnc1Cl | 176 to 178
43 | O=C(OCc1ccccc1)c1sc(Cl)nc1C(F)(F)F | 52
44 | CO[C@]1(CBr)O[C@H](COC(=O)c2ccc(C)cc2)[C@@H](OC(=O)c2ccc(C)cc2)[C@@H]1OC(=O)c1ccc(C)cc1 | 148 to 149
45 | O=[N+]([O-])c1ccc(-c2nn3c(C(F)(F)F)nnc3s2)cc1 | 213
46 | O=C(O)C=Cc1cc([N+](=O)[O-])ccc1Cl | 218 to 222
47 | OCc1ccc(N2CCCC2)nc1 | 61 to 62
48 | Cc1cc2c(o1)-c1c(oc3ccc(Cl)cc13)CCC2C (stereo not drawn) | 93
49 | c1ccc(-c2nsc(N3CCCNCC3)n2)cc1 | 82 to 83
50 | CCOP(=S)(NC(C)C)Oc1ccccc1C(=O)OC(C)C (stereo not drawn) | -12

Row | SMILES | melting point [°C]
51 | CC12CCC(=O)C=C1CCC1C3CCC4(CCC(=O)O4)C3CCC12C (stereo not drawn) | 158
52 | O=C(O)CCCCCCCCCCO | 65.5
53 | O=Cc1ccccc1OCc1cccc(Cl)c1 | 38 to 41
54 | CCCCc1c(C)nc(NC(=O)NS(=O)(=O)c2cccs2)nc1Cl | 188 to 189
55 | O=C(/C=C/c1ccc(OCCCCl)cc1)c1ccccc1 | 74
56 | O=C1Cc2cc([N+](=O)[O-])ccc21 | 76
57 | COc1ccc(-n2c(=S)[nH]c3ccccc3c2=O)cc1 | 307 to 310
58 | CC(CCC(=O)O)C1CCC2C3CCC4CCCCC4(C)C3CCC12C (stereo not drawn) | 164
59 | CCCC#CCCCC(=O)O | -3
60 | CC1(C)CC(=O)c2cc(-c3ccccc3)n(Cc3ccc(Cl)cc3)c2C1 | 115 to 117
61 | O=C(Cc1ccccc1)OC1Cc2ccccc21 (stereo not drawn) | 42
62 | Cc1noc(C)c1C=O | 35 to 38
63 | O=C(O)[C@@H]1CCCC[C@H]1C(=O)c1cccs1 (relative stereo) | 179 to 184
64 | NC(CCO)c1ccccc1 (stereo not drawn) | 70 to 77
65 | O=C(O)Cc1nn(Cc2nc3cc(C(F)(F)F)ccc3s2)c(=O)c2ccccc12 | 197
66 | Cc1cc(Br)cc(Cl)c1N | 38.5
67 | NC(=O)C=Cc1ccccc1 | 149
68 | COc1ccccc1N1CCN(CCCNc2cc(=O)n(C)c(=O)n2C)CC1 | 156
69 | CC(C(C#N)C(N)=O)C(C#N)C(N)=O (stereo not drawn) | 151 to 160
70 | ClC1=C(Cl)C(Cl)(C2(Cl)C(Cl)=C(Cl)C(Cl)=C2Cl)C(Cl)=C1Cl | 122
71 | O=C1CC(c2ccc([N+](=O)[O-])cc2)=NN1c1ccccc1 | 189
72 | Cc1c(Cl)cc([N+](=O)[O-])cc1Cl | 63 to 64
73 | CC(C=CC=C(C)C=CC1(O)C(C)(C)CCCC1(C)O)=CC=CC=C(C)C=CC(=O)O (stereo not drawn) | 213
74 | Nc1c(C(=O)O)cccc1[N+](=O)[O-] | 211
75 | C#Cc1ccc(Cl)cc1 | 45

Row | SMILES | melting point [°C]
76 | O=C1CC2OCC=C3CN4CCC56c7ccccc7N1C5C2C3CC46 (stereo not drawn) | 287
77 | C[C@]12C=C[C@H](O1)[C@H]1C(=O)OC(=O)[C@H]12 | 69 to 70
78 | NC(=O)c1cc(O)c(O)c(O)c1 | 240 to 243
79 | O=C(N=NC(=O)OCc1ccccc1)OCc1ccccc1 | 44 to 52
80 | Cc1ccc(C(=O)/C=C/c2ccc(-c3cccc([N+](=O)[O-])c3)o2)o1 | 160
81 | CC(=O)Nc1ccc(C(F)(F)F)cc1Cl | 136
82 | CCC(C1CCCCC1)C1CCCCC1 | -23.5
83 | COc1ccc(NC=C2C(=O)NN=C2c2c(O)c3ccccc3n(C)c2=O)cc1 | 281
84 | COc1ccccc1C(N)=O | 129
85 | C#CC(=C)C | -113
86 | OC1Cc2ccccc21 (stereo not drawn) | 58 to 59
87 | CCCCCCCCOC(=O)c1ccccc1C(=O)OCCCCCCCC(C)C | 98
88 | CC1CCOS(=O)O1 (stereo not drawn) | 5
89 | Clc1c(Cl)c(Cl)c2c(c1Cl)OC(c1ccccc1)(c1ccccc1)O2 | 153
90 | COc1ccc(NCC(=O)Nc2ccc(OC)cc2)cc1 | 132
91 | CCOC(=O)c1c(SC)nn(C(=O)c2ccc(OC)cc2)c1N | 160
92 | CCOC(=O)C1=C(C)NC(=O)NC1c1cccc([N+](=O)[O-])c1 (stereo not drawn) | 228
93 | O=C(C(C(=O)N1CCCCC1)c1ccccc1)N1CCCCC1 | 144
94 | Cc1cc(C)c(N)c(I)c1 | 65
95 | CC(C)=CCNC(=N)N | 62.5
96 | O=c1c2ccccc2[nH]c2ccccc12 | 360 to 362
97 | Cc1nc2cc(O)ccc2s1 | 186
98 | CC(C)(CO)[N+](=O)[O-] | 89.5
99 | O=Cc1cccc(-c2ccc(C(=O)O)cc2)c1 | 231 to 233
100 | Cc1cc(C)cc(S(=O)(=O)Cl)c1 | 93

Row | SMILES | melting point [°C]
101 | CCOC(=O)C=P(c1ccccc1)(c1ccccc1)c1ccccc1 | 124 to 129
102 | COC(=O)c1sccc1N1C(=O)C=CC1=O | 130 to 131
103 | CC1CCCCN1CCCOC(=O)c1ccc(Cl)c(Cl)c1 (stereo not drawn) | 25
104 | CCOC(=O)C=Cc1ccccc1 | 7
105 | CCC(C)C(NC(=O)OCC1c2ccccc2-c2ccccc21)C(=O)O (stereo not drawn) | 146 to 149
106 | N#Cc1nc(C#N)nc(C#N)n1 | 119
107 | [O-][P+](c1ccccc1)(c1ccccc1)C1C=C(c2ccccc2)OC(c2ccccc2)=C1 | 176
108 | O=C(Nc1cccc([N+](=O)[O-])c1)c1ccccc1 | 155
109 | OCc1cccc(-c2cncnc2)c1 | 65 to 66
110 | CCC(=O)c1ccc(N)cc1 | 140
111 | O=C(O)CCC(=O)c1ccc2c(c1)OCCO2 | 138 to 140
112 | CC(=O)NC1=NC(=O)C(=Cc2cc(=O)c3ccccc3o2)N1C | 244 to 246
113 | Oc1c(F)cccc1Cl | 63
114 | CC(C)(C)c1ccc(CCOc2ncnc3ccccc23)cc1 | 80.5
115 | O=C(O)c1ccnc(N2CCOCC2)c1 | 180
116 | O=S(=O)(Cl)c1ccccc1F | 30
117 | CC(C)(C)c1cc(C(=Nc2ccccc2)Nc2ccccc2)cc(C(C)(C)C)c1O | 130 to 131
118 | Cc1cccc(S)c1 | -20
119 | Cc1cc(Br)c(OCC(=O)NN)c2c1CCC2 | 69 to 70
120 | CCCCCCCCOC(=O)CCCC | -42.3
121 | O=Cc1ccc2ncccc2c1 | 74 to 75
122 | OCc1ccc(F)cc1Cl | 44.5
123 | O=C(OCC(=O)N1CCC1C(=O)O)c1ccccc1 (stereo not drawn) | 150
